Laboratory results published in patent US11365196B2, “FGFR inhibitor and application thereof” (Betta Pharmaceuticals Co., Ltd., priority 2017, dated 2022).
Where two headings read alike, the source gives them in different places.

Legend:
FGFR4 = FGFR4 (Homo sapiens (Human), UniProt P22455); assay: Kinase assay Method 1, mobility shift assay; assay type: biochemical; settings: ATP at Km, numeric values, read-out: IC50(nM) value of compounds FGFR4
NCI-H1581 cells = assay: Cell proliferation assay on NCI-H1581 (Table 7); assay type: cell-based, human
From the text: Test method: adding the appropriate volume of whole medium and the cells was suspended.

FGFR1 = FGFR1 (Homo sapiens (Human), UniProt P11362); assay: Kinase assay Method 1, mobility shift assay; settings: read-out: IC50(nM) value of compounds FGFR1; mobility shift assay, ATP at Km; class symbols
Chain of FGFR1 (P11362 22-822): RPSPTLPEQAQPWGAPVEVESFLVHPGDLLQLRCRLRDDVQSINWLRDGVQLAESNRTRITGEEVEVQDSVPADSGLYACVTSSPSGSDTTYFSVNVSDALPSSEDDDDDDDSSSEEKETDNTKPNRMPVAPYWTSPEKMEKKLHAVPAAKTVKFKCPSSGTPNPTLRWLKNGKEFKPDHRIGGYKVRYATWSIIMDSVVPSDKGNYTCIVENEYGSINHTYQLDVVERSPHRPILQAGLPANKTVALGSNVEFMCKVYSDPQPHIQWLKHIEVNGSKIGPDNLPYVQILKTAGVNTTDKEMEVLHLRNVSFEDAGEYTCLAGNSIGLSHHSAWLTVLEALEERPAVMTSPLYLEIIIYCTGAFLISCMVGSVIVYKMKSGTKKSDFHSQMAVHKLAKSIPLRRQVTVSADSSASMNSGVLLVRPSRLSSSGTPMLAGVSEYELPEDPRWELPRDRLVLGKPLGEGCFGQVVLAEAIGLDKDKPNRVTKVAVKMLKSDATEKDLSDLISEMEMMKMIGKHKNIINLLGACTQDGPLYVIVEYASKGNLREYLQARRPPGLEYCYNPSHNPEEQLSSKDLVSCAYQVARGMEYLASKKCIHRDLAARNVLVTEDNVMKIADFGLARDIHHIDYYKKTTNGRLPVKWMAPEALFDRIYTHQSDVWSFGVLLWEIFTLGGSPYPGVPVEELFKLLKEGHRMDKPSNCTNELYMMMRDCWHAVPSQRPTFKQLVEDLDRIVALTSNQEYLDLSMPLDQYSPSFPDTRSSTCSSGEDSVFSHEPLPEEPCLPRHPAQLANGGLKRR
Protocol: Method 1: The inhibitory activity of some compounds of the present disclosure against FGFR1, FGFR2, FGFR3, FGFR4, KDR was tested by mobility shift assay (concentration of ATP is Km value).
Preparing of compounds: dilute test compounds to specific concentration using 100% DMSO

[1] = Homo sapiens, NCI-H1581, read-out: IC50(nM) value of compounds on NCI-H1581 cells
[2] = Homo sapiens, NCI-H1581, CellTiter 96 AQueous (144 hrs) or CellTiter Glo (96 hrs), class symbols, read-out: IC50(nM) value of compounds on NCI-H1581 cells

Chain of FGFR4 (P22455 22-802): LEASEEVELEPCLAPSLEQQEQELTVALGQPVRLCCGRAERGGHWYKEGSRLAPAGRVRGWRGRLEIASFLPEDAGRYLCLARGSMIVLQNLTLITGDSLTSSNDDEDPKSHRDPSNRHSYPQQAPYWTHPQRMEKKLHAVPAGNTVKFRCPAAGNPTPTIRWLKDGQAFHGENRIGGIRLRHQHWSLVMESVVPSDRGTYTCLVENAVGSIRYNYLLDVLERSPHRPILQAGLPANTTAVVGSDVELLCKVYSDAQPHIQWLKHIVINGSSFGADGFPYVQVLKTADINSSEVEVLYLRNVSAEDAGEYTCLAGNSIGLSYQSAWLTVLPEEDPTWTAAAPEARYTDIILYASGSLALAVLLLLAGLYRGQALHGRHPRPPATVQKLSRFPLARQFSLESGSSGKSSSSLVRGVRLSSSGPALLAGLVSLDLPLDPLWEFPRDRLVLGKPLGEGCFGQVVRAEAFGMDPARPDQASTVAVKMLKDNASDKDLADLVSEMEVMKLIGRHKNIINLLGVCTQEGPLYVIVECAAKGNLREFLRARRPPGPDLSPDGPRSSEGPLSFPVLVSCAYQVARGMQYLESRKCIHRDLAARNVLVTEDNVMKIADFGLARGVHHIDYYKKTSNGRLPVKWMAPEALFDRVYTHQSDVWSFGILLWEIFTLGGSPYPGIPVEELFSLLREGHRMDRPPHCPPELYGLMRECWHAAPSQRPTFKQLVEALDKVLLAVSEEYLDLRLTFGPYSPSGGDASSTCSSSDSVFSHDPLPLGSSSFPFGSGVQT

Row | SMILES | IC50 (FGFR1) | IC50 (NCI-H1581 cells; [2]) | IC50 (FGFR4) | IC50 (NCI-H1581 cells; [1]) | IC50 (NCI-H1581 cells; read-out: IC50(nM) value of compounds on NCI-H1581 cells)
1 | CCN1CCC(c2ccc(Nc3ncc4cc(-c5cc(OC)cc(OC)c5Cl)c5nncn5c4n3)cc2)CC1 [Compound 102, 6-(2-chloro-3,5-dimethoxyphenyl)-N-(4-(1-ethylpiperidin-4-yl)phenyl)-[1,2,4]triazolo[4′,3′:1,6]pyrido[2,3-d]pyrimidin-2-amine] |  |  | 60 nM | 0.7 nM | 
2 | COc1cc(OC)c(Cl)c(-c2cc3cnc(Nc4ccc(C5CCNCC5)cc4)nc3n3cnnc23)c1 [Compound 102-2] |  |  | 26 nM |  | 0.9 nM
3 | C=CC(=O)N1CCN(Cc2nc3c(-c4c(Cl)c(OC)cc(OC)c4Cl)cc4cnc(NC)nc4n3n2)CC1 [Compound 123, 1-(4-(2-(4-(2,6-dichloro-3,5-dimethoxyphenyl)-8-(methylamino)-[1,2,4]triazolo[1′,5′:1,6]pyrido[2,3-d]pyrimidin-2-yl)methyl)piperazin-1-yl)prop-2-en-1-one] |  |  | 730 nM | 5.8 nM | 
4 | COc1cc(OC)c(Cl)c(-c2cc3cnc(Nc4ccc(N5C[C@@H](C)N[C@@H](C)C5)c(F)c4)nc3n3cnnc23)c1 [Compound 56, 6-(2-chloro-3,5-dimethoxyphenyl)-N-(4-((3S,5R)-3,5-dimethylpiperazin-1-yl)-3-fluorophenyl)-[1,2,4]triazolo[4′,3′:1,6]pyrido[2,3-d]pyrimidin-2-amine] |  |  | 51 nM | 1.2 nM | 
5 | COc1cc(OC)c(Cl)c(-c2cc3cnc(Nc4ccc(N5CCN(C)CC5)cn4)nc3n3cnnc23)c1 [Compound 16, 6-(2-chloro-3,5-dimethoxyphenyl)-N-(5-(4-methylpiperazin-1-yl)pyridin-2-yl)-[1,2,4]triazolo[4′,3′:1,6]pyrido[2,3-d]pyrimidin-2-amine] | > 10 nM | 10 to 100 nM |  |  | 
6 | CC[N+]1([O-])CCN(c2ccc(Nc3ncc4cc(-c5cc(OC)cc(OC)c5Cl)c5nncn5c4n3)cc2)CC1 [Compound 99, 4-(4-((6-(2-chloro-3,5-dimethoxyphenyl)-[1,2,4]triazolo[4′,3′:1,6]pyrido[2,3-d]pyrimidin-2-yl)amino)phenyl)-1-ethylpiperazine 1-oxide] | > 10 nM | 1 to 10 nM |  |  | 
7 | COc1cc(OC)c(Cl)c(-c2cc3cnc(Nc4ccc(N5CC6CCC(C5)N6)cc4)nc3n3cnnc23)c1 [Compound 51, N-(4-(3,8-diazabicyclo[3.2.1]octan-3-yl)phenyl)-6-(2-chloro-3,5-dimethoxyphenyl)[1,2,4]triazolo[4′,3′:1,6]pyrido[2,3-d]pyrimidin-2-amine] |  |  | 42 nM | 1.4 nM | 
8 | Cc1nc2cc(Cl)c(-c3cc4cnc(Nc5ccc(N6CCC(N(C)C)CC6)cc5)nc4n4cnnc34)cc2[nH]1 [Compound 78, 6-(5-chloro-2-methyl-1H-benzo[d]imidazol-6-yl)-N-(4-(4-(dimethylamino)piperidin-1-yl)phenyl)-[1,2,4]triazolo[4′,3′:1,6]pyrido[2,3-d]pyrimidin-2-amine] |  |  | 600 nM | 5.3 nM | 
9 | CCN1CCN(Cc2ccc(Nc3ncc4cc(-c5cc(OC)cc(OC)c5Cl)c5nncn5c4n3)cn2)CC1 [Compound 111, 6-(2-chloro-3,5-dimethoxyphenyl)-N-(6-((4-ethylpiperazin-1-yl)methyl)pyridin-3-yl)-[1,2,4]triazolo[4′,3′:1,6]pyrido[2,3-d]pyrimidin-2-amine] |  |  | 288 nM | 8.2 nM | 
10 | C=CC(=O)N1CCN(CCCc2nc3c(-c4cc(OC)cc(OC)c4Cl)cc4cnc(NC)nc4n3n2)CC1 [Compound 115, 1-(4-(3-(4-(2-chloro-3,5-dimethoxyphenyl)-8-(methylamino)-[1,2,4]triazolo[1′,5′:1,6]pyrido[2,3-d]pyrimidin-2-yl)propyl)piperazin-1-yl)prop-2-en-1-one] |  |  | 6.8 nM |  | 
11 | COc1cc(OC)c(Cl)c(-c2cc3cnc(Nc4ccc(N5CCN(C(C)=O)CC5)cc4)nc3n3cnnc23)c1 [Compound 106, 6-(2-chloro-3,5-dimethoxyphenyl)-N-(4-(4-acetylpiperazine-1-yl)phenyl)-[1,2,4]triazolo[4′,3′:1,6]pyrido[2,3-d]pyrimidin-2-amine] | < 1 nM | 1 to 10 nM |  |  | 
12 | COc1cc(OC)c(Cl)c(-c2cc3cnc(Nc4ccc(N5CCN(C)CC5)cc4)nc3n3cnnc23)c1 [Compound 15, 6-(2-chloro-3,5-dimethoxyphenyl)-N-(4-(4-methylpiperazin-1-yl)phenyl)-[1,2,4]triazolo[4′,3′:1,6]pyrido[2,3-d]pyrimidin-2-amine] | < 1 nM | < 1 nM |  |  | 
13 | COc1cc(OC)c(Cl)c(-c2cc3cnc(Nc4ccc(N5CCN(C6COC6)CC5)cc4)nc3n3cnnc23)c1 [Compound 13, 6-(2-chloro-3,5-dimethoxyphenyl)-N-(4-(4-(oxetan-3-yl)piperazin-1-yl)phenyl)-[1,2,4]triazolo[4′,3′:1,6]pyrido[2,3-d]pyrimidin-2-amine] | < 1 nM | 1 to 10 nM |  |  | 

Second part, led by results:

Row | IC50 (FGFR1) | IC50 (NCI-H1581 cells; [2]) | SMILES | IC50 (FGFR4) | IC50 (NCI-H1581 cells; [1]) | IC50 (NCI-H1581 cells; read-out: IC50(nM) value of compounds on NCI-H1581 cells)
14 | > 100 nM | 10 to 100 nM | C=CC(=O)Nc1ccc(Cc2nc3c(-c4cc(OC)cc(OC)c4Cl)cc4cnc(NCCN5CCOCC5)nc4n3n2)cc1 [Compound 112, N-(4-((4-(2-chloro-3,5-dimethoxyphenyl)-8-((2-morpholinoethyl)amino)-[1,2,4]triazolo[1′,5′:1,6]pyrido[2,3-d]pyrimidin-2-yl)methyl)phenyl)acrylamide] |  |  | 
15 | > 100 nM | > 100 nM | CCC(=O)Nc1ccc(Cc2nnc3c(-c4cc(OC)cc(OC)c4Cl)cc4cnc(NCCN5CCOCC5)nc4n23)cc1 [Compound 96, N-(4-((6-(2-chloro-3,5-dimethoxyphenyl)-2-((2-morpholinoethyl)amino)-[1,2,4]triazolo[4′,3′:1,6]pyrido[2,3-d]pyrimidin-9-yl)methyl)phenyl)propionamide] |  |  | 
16 | < 1 nM | < 1 nM | CCN1CCN(c2ccc(Nc3ncc4cc(-c5c(Cl)c(OC)cc(OC)c5Cl)c5nncn5c4n3)cc2)CC1 [Compound 61, 6-(2,6-dichloro-3,5-dimethoxyphenyl)-N-(4-(4-ethylpiperazin-1-yl)phenyl)-[1,2,4]triazolo[4′,3′:1,6]pyrido[2,3-d]pyrimidin-2-amine] |  |  | 
17 | > 10 nM | 1 to 10 nM | C=CC(=O)Nc1ccc(Cc2nnc3c(-c4cc(OC)cc(OC)c4Cl)cc4cnc(NCCN5CCOCC5)nc4n23)cc1 [Compound 86, N-(4-((6-(2-chloro-3,5-dimethoxyphenyl)-2-((2-morpholinoethyl)amino)-[1,2,4]triazolo[4′,3′:1,6]pyrido[2,3-d]pyrimidin-9-yl)methyl)phenyl)acrylamide] |  |  | 
18 | > 10 nM | 10 to 100 nM | CCN1CCN(Cc2ccc(Nc3ncc4cc(-c5cc(OC)cc(OC)c5Cl)c5nncn5c4n3)nc2)CC1 [Compound 17, 6-(2-chloro-3,5-dimethoxyphenyl)-N-(5-((4-ethylpiperazin-1-yl)methyl)pyridin-2-yl)-[1,2,4]triazolo[4′,3′:1,6]pyrido[2,3-d]pyrimidin-2-amine] |  |  | 
19 | > 10 nM | 10 to 100 nM | COc1cc(OC)c(Cl)c(-c2cc3cnc(Nc4ccc(N5CC6(CN(C(=O)N(C)C)C6)C5)cc4)nc3n3cnnc23)c1 [Compound 108, 6-(4-((6-(2-chloro-3,5-dimethoxyphenyl)-[1,2,4]triazolo[4′,3′:1,6]pyrido[2,3-d]pyrimidin-2-yl)amino)phenyl)-N,N-dimethyl-2,6-diazaspiro[3.3]heptane-2-carboxamide] |  |  | 
20 | < 1 nM | 1 to 10 nM | COc1cc(OC)c(Cl)c(-c2cc3cnc(Nc4ccc(N5CCN(C(=O)N(C)C)CC5)cc4)nc3n3cnnc23)c1 [Compound 107, 4-(4-((6-(2-chloro-3,5-dimethoxyphenyl)-[1,2,4]triazolo[4′,3′:1,6]pyrido[2,3-d]pyrimidin-2-yl)amino)phenyl)-N,N-dimethylpiperazine-1-carboxamide] |  |  | 
21 | < 1 nM | < 1 nM | COc1cc(OC)c(Cl)c(-c2cc3cnc(Nc4ccc(N5CCN(C(C)C)CC5)cc4)nc3n3cnnc23)c1 [Compound 11, 6-(2-chloro-3,5-dimethoxyphenyl)-N-(4-(4-isopropylpiperazin-1-yl)phenyl)-[1,2,4]triazolo[4′,3′:1,6]pyrido[2,3-d]pyrimidin-2-amine] |  |  | 
22 | < 1 nM | < 1 nM | COc1cc(OC)c(Cl)c(-c2cc3cnc(Nc4ccc(C5CCNCC5)c(C)c4)nc3n3cnnc23)c1 [Compound 52, 6-(2-chloro-3,5-dimethoxyphenyl)-N-(3-methyl-4-(piperidin-4-yl)phenyl)-[1,2,4]triazolo[4′,3′:1,6]pyrido[2,3-d]pyrimidin-2-amine] |  |  | 
23 | < 1 nM | < 1 nM | COc1cc(OC)c(Cl)c(-c2cc3cnc(Nc4ccc(N5CCC(N(C)C)CC5)cc4)nc3n3cnnc23)c1 [Compound 14, 6-(2-chloro-3,5-dimethoxyphenyl)-N-(4-(4-(dimethylamino)piperidin-1-yl)phenyl)[1,2,4]triazolo[4′,3′:1,6]pyrido[2,3-d]pyrimidin-2-amine] |  |  | 
24 | < 1 nM | 1 to 10 nM | COc1cc(OC)c(Cl)c(-c2cc3cnc(Nc4ccc(N5CCN(C6CCCC6)CC5)cc4)nc3n3cnnc23)c1 [Compound 104, 6-(2-chloro-3,5-dimethoxyphenyl)-N-(4-(4-cyclopentylpiperazin-1-yl)phenyl)-[1,2,4]triazolo[4′,3′:1,6]pyrido[2,3-d]pyrimidin-2-amine] |  |  | 
25 | > 10 nM | 10 to 100 nM | C=CC(=O)N1CCN(CCCc2nnc3c(-c4cc(OC)cc(OC)c4Cl)cc4cnc(NC)nc4n23)CC1 [Compound 113, 1-(4-((6-(2-chloro-3,5-dimethoxyphenyl)-2-(methylamino)-[1,2,4]triazolo[4′,3′:1,6]pyrido[2,3-d]pyrimidin-9-yl)propyl)piperazin-1-yl)prop-2-en-1-one] |  |  | 
